One assay addresses T1, GPR6 receptor expressed in CHO-K1 cells (Homo sapiens, UniProt P46095).
T1 construct: expressed in transfected cells
Put plainly: Inhibition of cAMP Activity of GPR6 In Vitro Assay. The format is cell-based. As to conditions: inhibition of constitutive cAMP activity of GPR6 in CHO-K1 cells, 45 min incubation, HTRF cAMP detection. The protocol:
Inhibition of cAMP Activity of GPR6 In Vitro Assay
This cell based assay measures the ability of compounds to inhibit the constitutive cAMP activity of GPR6 receptor expressed in CHO-K1 cells. CHO cells were stably expressed with GPR6 receptor, whose expression is controlled by a tetracycline inducable element. The cells were cultured in medium containing F12K, 10% FBS, 1% Penn/Strep, 200 ug/mL Hygromycin. GPR6 receptor expression was induced for 20 hrs with 2 µg/ml doxycycline (sigma D9891) in growth media. After addition of doxycycline cells were plated at a density of 450-750 cells per well in 96-well half-volume black tissue culture plates (Costar) and placed in an incubator (37°, 5% CO2) for 20 hours prior to cAMP assays.
Culture media was removed from cells and they were washed with 50 µL/well of Ringer's Buffer (MgCl2 0.047 mg/mL, NaH2PO4 0.18 mg/mL, Na2HPO4 0.1 mg/mL, KCl 0.34 mg/mL, NaHCO3 1.26 mg/mL, D-glucose 1.8 mg/mL, NaCl 7 mg/mL; pH=7.4). Compounds suspended in DMSO were diluted in Ringer's Buffer containing 0.5% fatty acid free BSA plus 300 μM IBMX and incubated on cells for 45 min at 37° and 5% CO2. After incubation cells were incubated for 10 min at room temp with Eu-cAMP tracer solution from a Perkin Elmer Lance HTRF Ultra cAMP assay kit (TRF0263). Then ULight™-anti-cAMP solution from the Lance HTRF kit was added and incubated on a shaker at room temp for 1 hour prior to HTRF detection in a Perkin Elmer Envision plate reader.
IC50 curves were generated with a four-parameter logistic equation using GraphPad Prism 5.03.
(In general: TR-FRET usually uses a lanthanide donor and a delayed reading to cut background.)
T1 sequence (P46095 whole entry): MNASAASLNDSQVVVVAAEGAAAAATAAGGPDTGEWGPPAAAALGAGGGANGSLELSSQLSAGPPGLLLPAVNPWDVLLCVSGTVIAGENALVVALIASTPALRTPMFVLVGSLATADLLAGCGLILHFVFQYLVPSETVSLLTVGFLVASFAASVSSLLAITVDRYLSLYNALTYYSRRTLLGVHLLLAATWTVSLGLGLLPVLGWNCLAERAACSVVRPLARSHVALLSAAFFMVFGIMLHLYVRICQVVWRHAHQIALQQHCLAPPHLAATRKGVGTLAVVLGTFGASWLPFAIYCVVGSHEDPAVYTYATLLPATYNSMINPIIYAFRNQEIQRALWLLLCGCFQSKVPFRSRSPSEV
The term EC50 denotes the concentration at which the effect is half-maximal. In turn, `Cc1cc2nc(N3CCC(Oc4ccc(F)cc4F)CC3)c(N[C@@H]3CCOC3)nc2cn1` [Example 36] yielded an EC50 of 76.3 nM.
The same measure, in the same setting: with `Cc1cc2nc(N3CCC(Oc4ccc(F)cc4F)CC3)c(N[C@H]3CCOC3)nc2cn1` [Example 37, (S)-2-(4-(2,4-difluorophenoxy)piperidin-1-yl)-7-methyl-N-(tetrahydrofuran-3-yl)pyrido[3,4-b]pyrazin-3-amine] the figure was 128 nM; with `Cc1cc2nc(N3CCC(Oc4ccc(OC(F)F)cc4F)CC3)c(NC(C)C)nc2cn1` [Example 38, 2-(4-(4-(difluoromethoxy)-2-fluorophenoxy)piperidin-1-yl)-N-isopropyl-7-methylpyrido[3,4-b]pyrazin-3-amine], 309 nM.
The molecule `Cc1cc2nc(N3CCC(Oc4ccc(OC(F)F)cc4F)CC3)c(NC3CC3)nc2cn1` [Example 39, N-cyclopropyl-2-(4-(4-(difluoromethoxy)-2-fluorophenoxy)piperidin-1-yl)-7-methylpyrido[3,4-b]pyrazin-3-amine] had a concentration for a half-maximal effect (EC50) above 5000 nM.
On the same count and under the same terms, next, `Cc1cc2nc(N3CCC(Oc4ccc(OC(F)F)cc4F)CC3)c(N[C@@H]3CCOC3)nc2cn1` [Example 40, (R)-2-(4-(4-(difluoromethoxy)-2-fluorophenoxy)piperidin-1-yl)-7-methyl-N-(tetrahydrofuran-3-yl)pyrido[3,4-b]pyrazin-3-amine]: above 1000 nM; `Cc1cc2nc(N3CCC(Oc4ccc(OC(F)F)cc4F)CC3)c(N[C@H]3CCOC3)nc2cn1` [Example 41, (S)-2-(4-(4-(difluoromethoxy)-2-fluorophenoxy)piperidin-1-yl)-7-methyl-N-(tetrahydrofuran-3-yl)pyrido[3,4-b]pyrazin-3-amine]: above 1000 nM; `COc1ccc(CN2CCN(c3nc4cc(C)ncc4nc3NC(C)C)CC2)c(F)c1` [Example 42, 2-(4-(2-fluoro-4-methoxybenzyl)piperazin-1-yl)-N-isopropyl-7-methylpyrido[3,4-b]pyrazin-3-amine]: 276 nM.
Still for that read-out and setting: next, `COc1ccc(CN2CCN(c3nc4cc(C)ncc4nc3NC3CC3)CC2)c(F)c1` [Example 43, N-cyclopropyl-2-(4-(2-fluoro-4-methoxybenzyl)piperazin-1-yl)-7-methylpyrido[3,4-b]pyrazin-3-amine]: above 1000 nM.
Regarding `COc1ccc(CN2CCN(c3nc4cc(C)ncc4nc3N[C@@H]3CCOC3)CC2)c(F)c1` [Example 44, (R)-2-(4-(2-fluoro-4-methoxybenzyl)piperazin-1-yl)-7-methyl-N-(tetrahydrofuran-3-yl)pyrido[3,4-b]pyrazin-3-amine], the EC50 was above 1000 nM.
Molecule `COc1ccc(CN2CCN(c3nc4cc(C)ncc4nc3N[C@H]3CCOC3)CC2)c(F)c1` [Example 45, (S)-2-(4-(2-fluoro-4-methoxybenzyl)piperazin-1-yl)-7-methyl-N-(tetrahydrofuran-3-yl)pyrido[3,4-b]pyrazin-3-amine] had an EC50 above 1000 nM.
`Cc1cc2nc(N3CCN(Cc4ccc(OC(F)F)cc4F)CC3)c(NC(C)C)nc2cn1` [Example 46, 2-(4-(4-(difluoromethoxy)-2-fluorobenzyl)piperazin-1-yl)-N-isopropyl-7-methylpyrido[3,4-b]pyrazin-3-amine] registered an EC50 above 1000 nM.
On the same count and under the same terms, with `Cc1cc2nc(N3CCN(Cc4ccc(OC(F)F)cc4F)CC3)c(NC3CC3)nc2cn1` [Example 47, N-cyclopropyl-2-(4-(4-(difluoromethoxy)-2-fluorobenzyl)piperazin-1-yl)-7-methylpyrido[3,4-b]pyrazin-3-amine] the figure was above 1000 nM; with `Cc1cc2nc(N3CCN(Cc4ccc(OC(F)F)cc4F)CC3)c(N[C@@H]3CCOC3)nc2cn1` [Example 48, (R)-2-(4-(4-(difluoromethoxy)-2-fluorobenzyl)piperazin-1-yl)-7-methyl-N-(tetrahydrofuran-3-yl)pyrido[3,4-b]pyrazin-3-amine], above 1000 nM; with `Cc1cc2nc(N3CCN(Cc4ccc(OC(F)F)cc4F)CC3)c(N[C@H]3CCOC3)nc2cn1` [Example 49, (S)-2-(4-(4-(difluoromethoxy)-2-fluorobenzyl)piperazin-1-yl)-7-methyl-N-(tetrahydrofuran-3-yl)pyrido[3,4-b]pyrazin-3-amine], above 1000 nM.
In the case of `Cc1cc2nc(N3CCN(Cc4ccc(F)cc4F)CC3)c(NC3COC3)nc2cn1` [Example 50, 2-(4-(2,4-difluorobenzyl)piperazin-1-yl)-7-methyl-N-(oxetan-3-yl)pyrido[3,4-b]pyrazin-3-amine], the EC50 was found to be 164 nM.

For the next assay, the system named is Haloperidol-Induced Catalepsy. Put plainly: Haloperidol-Induced Catalepsy, In Vivo Rodent Parkinson's Disease Model. Particulars: Rat, dose 1 mg/kg, sc. The source says:
Haloperidol-Induced Catalepsy—In Vivo Rodent Parkinson's Disease Model
The motor symptoms of Parkinson's disease include akinesia, bradykinesia, rigidity, tremor and postural abnormalities and are associated with the loss of nigral dopaminergic cells and a decline in striatal dopamine levels. Administration of haloperidol to rodents leads to a transient parkinsonian-like state that is reversed by the administration of L-Dopa (Duty, S.; Jenner, P. Br. J. Pharmacol. (2011), 164, 1357-1391) and other drugs that have been clinically validated for the treatment of Parkinson's disease. Haloperidol antagonizes dopamine D2 and, to a lesser extent, D1 receptors in medium spiny neurons that comprise the indirect and direct pathways of the motor circuit respectively. The resultant block of striatal dopamine transmission results in abnormal downstream firing within the basal ganglia circuits that is manifest as symptoms of muscle rigidity and catalepsy. Catalepsy has been postulated to reflect the clinical features of Parkinson's disease, whereby patients experience an inability of to initiate movements.
Male Sprague-Dawley rats (Charles River, Calco, Italy) weighing 175-200 g are used. Alternatively, male C57Bl6 mice weighing 25-35 g were used. The cataleptic state was induced by the subcutaneous administration of the dopamine receptor antagonist haloperidol (0.3 mg/kg, sc), 90 min before testing the animals on the vertical grid test. […] The time span from placement of the paws until the first complete removal of one paw (descent latency) was measured maximally for 120 sec for rats. For mice, the front paws of a mouse was placed on a horizontal metal bar raised 2″ above a Plexiglas platform and time was recorded for up to 30 seconds per trial. […]
Catalepsy was measured 30 min, […], and/or […] after dosing the subjects a 1.0 mg/kg i.p. dose of haloperidol along with the GPR6 modulator test compound. Test compound plasma and brain levels were determined by collected tissue samples at the end of the experiment, which was either at the 120 or 240 min time point. […]
Regarding `Cc1cc2nc(NC3CC3)c(N3CCN(Cc4ccc(F)cc4F)CC3)nc2cn1` [Example 7, N-cyclopropyl-3-(4-(2,4-difluorobenzyl)piperazin-1-yl)-7-methylpyrido[3,4-b]pyrazin-2-amine], the “% reversal at 90 min” value came out at 33.5%.

The same assay, now with this note: Rat, dose 10 mg/kg, sc.
On to `Cc1cc2nc(NC3CC3)c(N3CCN(Cc4ccc(F)cc4F)CC3)nc2cn1` [Example 7, N-cyclopropyl-3-(4-(2,4-difluorobenzyl)piperazin-1-yl)-7-methylpyrido[3,4-b]pyrazin-2-amine], for which the “% reversal at 90 min” value is reported as 63.6%.

The same assay, now with this note: Rat, dose 30 mg/kg, sc.
In the case of `Cc1cc2nc(NC3CC3)c(N3CCN(Cc4ccc(F)cc4F)CC3)nc2cn1` [Example 7, N-cyclopropyl-3-(4-(2,4-difluorobenzyl)piperazin-1-yl)-7-methylpyrido[3,4-b]pyrazin-2-amine], the “% reversal at 90 min” value was found to be 42.8%.

The values above are taken from patent publication US10597392B2, “Tetrahydropyridopyrazines as modulators of GPR6” (Takeda Pharmaceutical Corporation Limited, priority 2014, dated 2020).
